Assays:
G12V KRAS in SW480 cells = test: KRAS protein expression after ELOVL6i treatment at different concentrations (immunoblot); assay type: cell-based, human; conditions: FIG. 2G
Method: Whole-cell extracts were prepared using RIPA buffer (Sigma, #R0278) supplemented with protease and phosphatase inhibitor cocktail (Thermo Fisher Scientific, #78442) on ice for 20 minutes. Subsequently, the lysates were centrifuged at 10,000 g for 20 minutes, and the protein concentration was determined using the BCA assay (Thermo Fisher Scientific, #A55864). The proteins were separated on 4-15% precast protein gels (Bio-Rad, #4568084) in 1×-Tris-Glycine-SDS buffer (Bio-Rad, #1610772) at a constant voltage of 100V and transferred onto nitrocellulose membrane (Bio-Rad, #1620115) using 1× Tris-Glycine Buffer (Bio-Rad, 1610734) at 100V for 1 hour. Following transfer, membrane was blocked in 5% skim milk for 1 hour, then incubated at 4° C. with primary antibodies. Detection was performed using horseradish peroxidase (HRP)-conjugated secondary antibodies. Blots were visualized with chemiluminescent substrate (Thermo Fisher Scientific, #34580) using Azure imaging system. Immunoblots were quantified using ImageJ.

[1] = tested on: G12V or G12D KRAS cell lines; test: Lipid add-back cell viability experiment; assay type: cell-based; conditions: 200 μM oleic acid or 20 μM stearic acid supplemented medium, FIGS. 5G and 19
Method: (§1) The cells were seeded in triplicates in 96-well plates at a density of 5,000-10,000 cells per well and treated with the indicated concentrations of ELOVL6 inhibitor. Assay plates were subjected to daily media exchange with fresh ELOVL6 inhibitor. Following treatment, cell viability was assessed after a period of 1-week treatment using the CellTiter-Glo Luminescent Cell Viability Assay (Promega, #G7571) with luminescence readings taken on a Cytation™ 3 cell imaging multi-mode reader (Fisher Scientific). The background value was indicated by cell medium without cells and was subtracted from the raw data. The fold change in cell viability was determined relative to control cells that received no treatment.
For the lipid-addback experiment, cells were treated with the indicated concentrations of ELOVL6 inhibitor in 200 μM of oleic acid (Sigma, #O1383-1G) or 20 μM of stearic acid (Sigma, #S4751-1G) supplemented medium.

[2] = tested on: human cell lines harboring KRAS mutations (colorectal, lung, pancreatic cancers); test: Cell viability assay (CellTiter-Glo, 7-day ELOVL6i treatment) across a cell line panel; assay type: cell-based
Method: as §1

[3] = tested on: cellular lipid composition (ELOVL6 fatty acid elongation); test: Lipidomic analysis (targeted fatty acids and shotgun lipidomics) of ELOVL6i treated cells; assay type: cell-based; conditions: 40 μM for 1-week
Method: Cells were treated with ELOVL6 inhibitor at 40 μM for 1-week. Cell pellets were stored at −80° C. until sent for lipidomic analysis. Mass spectrometry-based shotgun untargeted lipid analysis and targeted fatty acids analysis were conducted by Lipotype (Dresden, Germany). Lipids were extracted using chloroform and methanol procedure as previously described (38). Samples were analyzed by automated direct infusion and orbitrap mass spectrometry. LipotypeXplorer was used for identification of lipids in the raw mass spectra (39). Alterations in lipid composition were determined based on mol % of total lipid normalized to untreated control samples.

SW403 xenograft = test: SW403 G12V KRAS mutant xenograft study; assay type: in vivo
Method: To establish cell-line-derived xenograft models, 5 million cells (SW403 and NCI-H441) suspended in PBS were subcutaneously injected to the right flanks of 8-week-old female athymic nude (nu/nu) mice purchased from the Jackson Laboratory. Once tumor reached approximately 50 mm3 volume, mice were randomized into groups (n=10) and treated with vehicle control (corn oil) or ELOVL6 inhibitor (dissolved in corn oil) dosed at 300 mg/kg. Treatment was administered twice daily by oral gavage. Tumor growth was measured 2-3 times per week using a caliper. Tumors were collected at the indicated timepoint and at the endpoint for analysis. For KRAS downstream signaling analysis, tumors were dissociated into single cells for flow cytometry analysis and protein was extract for western blotting.
Tumor specimens were fixed in 10% formalin for at least 24 hours. Then washed with PBS and stored in 70% ethanol until paraffin embedding. Slides were stained using Dako Autostainer Plus. The following antibodies were used for staining: KRAS (Proteintech, #12063-1-AP), Ki-67 (Abcam, Ab15580), phospho-ERK (Cell Signaling Technology, #4370S), and ERK (Cell Signaling Technology, #4695s). Slides were then incubated with HRP labelled polymer anti-rabbit antibody (Agilent, K4003). All slides were […] through xylene and alcohol, them mounted, and cover slipped. Slides were scanned at 20× using a Nano Zoomer 2.0 HT (Hamamatsu Photonics).

[4] = tested on: mCherry-G12V KRAS expressing HT29 cells; test: mCherry-tagged G12V KRAS protein level after ELOVL6i treatment; assay type: cell-based, human; conditions: FIGS. 11A and 11B
Method: To label intracellular markers, live cells were fixed with 4% paraformaldehyde (Fisher Scientific, #AA47377-9M) for 20 minutes, washed with PBS, permeabilized with 0.2% Triton X-100 (Sigma, X100-100ML) for 10 minutes, blocked with PBS with 2% BSA (flow buffer) for 30 minutes then stained with the antibodies prepared in flow buffer. Cells were incubated with primary antibodies for 1-hour at room temperature. Primary antibodies used were: anti-KRAS (Proteintech, #12063-1-AP), anti-phospho-ERK (Thr202/Tyr204) (Cell Signaling Technology, #4370S), and anti-ERK (Cell Signaling Technology, #4695S). After wash with flow buffer, cells were incubated with secondary antibodies for 30 minutes. […] Stained samples and the isotype control were analyzed immediately by flow cytometers. Data were analyzed using the FlowJo software. MFI was defined as median fluorescence across the cell population.
HT29 and SW480 cells were transduced with mCherry-WT-KRAS (Addgene, #153335) or mCherry-G12V-KRAS (Addgene, #153336) plasmid for stable mCherry-KRAS expression. […] Images were analyzed by Fiji Image J. The mean fluorescence intensity of mCherry-KRAS was normalized to the time zero measurement of each FOV to generate relative mCherry-KRAS expression across the experiment's timespan. […]

mCherry-G12V KRAS = test: Live-cell imaging of mCherry-KRAS and plasma membrane co-localization; assay type: cell-based, human; conditions: 40 μM, FIGS. 2H-2K
Method: HT29 and SW480 cells were transduced with mCherry-WT-KRAS (Addgene, #153335) or mCherry-G12V-KRAS (Addgene, #153336) plasmid for stable mCherry-KRAS expression. Cells were seeded onto 35 mm glass bottom dish (Fisher Scientific, #NC0794151). ELOVL6 inhibitor was added at 40 μM prior to imaging. Cells were stained with CellBrite™ Steady 488 membrane dye (Biotium, #30106 T) for 30 minutes. Live cells were imaged using Nikon W1 dual cam spinning disk confocal with TIRF and a 100× objective. Five random fields of view (FOV) were selected, and an image/FOV was taken every 15 minutes for a duration of 20 hours. Images were analyzed by Fiji Image J. The mean fluorescence intensity of mCherry-KRAS was normalized to the time zero measurement of each FOV to generate relative mCherry-KRAS expression across the experiment's timespan. The Pearson's coefficient plugin JACop from ImageJ was used for quantification co-localization between mCherry-KRAS and cell membrane dye.

[5] = tested on: GTP-bound KRAS in cancer cell lines harboring G12V or G12D KRAS; test: RAS activation assay (active-KRAS pull-down) in mutant KRAS cancer cell lines; assay type: cell-based, human; conditions: multiple cancer cell lines harboring G12V or G12D KRAS, 40 μM for 3 days, FIGS. 3E-3G
Method: (§2) Cells were treated with 40 μM of ELOVL6 inhibitor ELOVL6-IN-2 (MCE, HY-12146) for 3days and collected for protein extraction. RAS activity was assessed utilizing the active Ras pull-down and detection kit (Thermo Fisher Scientific, #16117). In brief, GST-RAF1 RBD and glutathione agarose resin were combined with whole-cell lysates and incubated on a rotator for 1 hour at 4° C. This was followed by three washes and elution with 2× SDS-PAGE loading buffer. The eluted samples were then subjected to western blotting to detect GTP-RAS.

[6] = tested on: GTP-bound KRAS in G12V KRAS expressing HEK293 cells; test: RAS activation assay (active-KRAS pull-down) in HEK293 cells; assay type: cell-based, human; conditions: 40 μM for 3 days, FIG. 3D
Method: as §2

[7] = targeted lipidomic analysis, versus vehicle-treated controls, FIGS. 5A and 16

Cc1[nH]n(-c2ccc(OC(F)(F)F)cc2)c(=O)c1C1(C(F)(F)F)C(=O)N(c2ccccc2)C2=C1C(=O)CC(C)(C)C2 (centres unmarked) [ELOVL6i]
effect on G12V KRAS protein level (G12V KRAS in SW480 cells): concentration-dependent effect | cell viability with exogenous oleic acid or stearic acid supplementation during ELOVL6i treatment [1]: enhanced cell viability | sensitivity of mutant KRAS-expressing cells versus WT KRAS expressing cells ([2]; 7-day treatment, FIGS. 4G-4I and 14): more sensitive | cell viability across KRAS variants ([2]; G12V, G12D, G13D, G12C, G12R, Q61X, A146T cell lines, 7-day treatment, FIG. 4F): impacted cell viability across all KRAS variants tested | sensitivity of pancreatic cancer cell lines (antiproliferative effect) ([2]; panel of human KRAS mutant cell lines): especially sensitive | long-chain PUFA ([3]; ELOVL6i treated cells): increases | sphingolipids, including sphingomyelin (SM) and Hexosyl-Ceramide (HexCer) ([3]; shotgun lipidomic analysis, FIG. 5C): significant reduction | levels of PtdSer ([3]; shotgun lipidomic analysis, FIG. 5E): significantly altered | glycerolipid abundance, including diacylglycerol (DAG) and triacylglycerol (TAG) ([3]; shotgun lipidomic analysis, FIGS. 5B and 18A): Notable increases | levels of oleate [3, 7]: significant reduction | levels of stearate [3, 7]: significant reduction | ERK phosphorylation (immunohistochemistry) (SW403 xenograft; SW403 tumor samples, FIG. 4E): significant decrease | expression of mutant KRAS (immunohistochemistry) (SW403 xenograft; SW403 tumor samples, FIG. 4E): significant decrease | ki-67 proliferation marker (immunohistochemistry) (SW403 xenograft; SW403 tumor samples, FIG. 4E): significant decrease | ERK phosphorylation in tumor samples (SW403 xenograft; SW403 tumors, western blot and flow cytometry after 3-day, 1-week, 3-week treatment, FIGS. 13B-13D): time-dependent reduction | survival (SW403 xenograft; SW403 xenograft, oral, 300 mg/kg, FIG. 4D): prolonged survival | tumor growth rate (SW403 xenograft; SW403 xenograft, oral, 300 mg/kg, FIGS. 4B-4D): significant reduction | tolerability (SW403 xenograft; mice bearing SW403 xenograft, oral, 300 mg/kg, FIG. 13A): well tolerated | lowering of mCherry-G12V KRAS [4]: dose-dependent effects | mCherry-G12V KRAS co-localization with cell membrane (mCherry-G12V KRAS): Significant reductions | mCherry-G12V KRAS fluorescence intensity (mCherry-G12V KRAS): Significant reductions | cellular GTP-bound KRAS [5]: consistently reduced | GTP-bound KRAS [6]: significantly reduced

From patent US20260022380A1, “GENETIC MODULATORS OF KRAS PROTEIN EXPRESSION AND THEIR USES” (Northwestern University, priority 2024, published 2026)
